Measurements from US20050256301A1 (The University of Queensland, priority 1998, published 2005).
pEC50: −log10 of the molar value. Where two headings read alike, the source gives them in different places.

What was measured:
[1] = biological target: human noradrenaline transporter (NET) (human) (UniProt P23975); experiment: displacement of [3H]nisoxetine from COS-7 hNET membranes
P/Q type Ca channels = P/Q type Ca channels (Rattus norvegicus, UniProt P54282); type: binding
[2] = biological target: endoproteinase Glu-C (Endo Glu-C) (Staphylococcus aureus, UniProt P0C1U8); conditions: pH 8
[3] = human, plasma
[4] = biological target: T1, N-type voltage-sensitive calcium channels (Rattus norvegicus, UniProt Q02294); type: binding
T1 construct: Rats were sacrificed by cervical dislocation and their brains removed and immediately frozen in liquid nitrogen; from tissue; host or cells: rat brain membrane
T1 sequence (Q02294 whole entry, looked up): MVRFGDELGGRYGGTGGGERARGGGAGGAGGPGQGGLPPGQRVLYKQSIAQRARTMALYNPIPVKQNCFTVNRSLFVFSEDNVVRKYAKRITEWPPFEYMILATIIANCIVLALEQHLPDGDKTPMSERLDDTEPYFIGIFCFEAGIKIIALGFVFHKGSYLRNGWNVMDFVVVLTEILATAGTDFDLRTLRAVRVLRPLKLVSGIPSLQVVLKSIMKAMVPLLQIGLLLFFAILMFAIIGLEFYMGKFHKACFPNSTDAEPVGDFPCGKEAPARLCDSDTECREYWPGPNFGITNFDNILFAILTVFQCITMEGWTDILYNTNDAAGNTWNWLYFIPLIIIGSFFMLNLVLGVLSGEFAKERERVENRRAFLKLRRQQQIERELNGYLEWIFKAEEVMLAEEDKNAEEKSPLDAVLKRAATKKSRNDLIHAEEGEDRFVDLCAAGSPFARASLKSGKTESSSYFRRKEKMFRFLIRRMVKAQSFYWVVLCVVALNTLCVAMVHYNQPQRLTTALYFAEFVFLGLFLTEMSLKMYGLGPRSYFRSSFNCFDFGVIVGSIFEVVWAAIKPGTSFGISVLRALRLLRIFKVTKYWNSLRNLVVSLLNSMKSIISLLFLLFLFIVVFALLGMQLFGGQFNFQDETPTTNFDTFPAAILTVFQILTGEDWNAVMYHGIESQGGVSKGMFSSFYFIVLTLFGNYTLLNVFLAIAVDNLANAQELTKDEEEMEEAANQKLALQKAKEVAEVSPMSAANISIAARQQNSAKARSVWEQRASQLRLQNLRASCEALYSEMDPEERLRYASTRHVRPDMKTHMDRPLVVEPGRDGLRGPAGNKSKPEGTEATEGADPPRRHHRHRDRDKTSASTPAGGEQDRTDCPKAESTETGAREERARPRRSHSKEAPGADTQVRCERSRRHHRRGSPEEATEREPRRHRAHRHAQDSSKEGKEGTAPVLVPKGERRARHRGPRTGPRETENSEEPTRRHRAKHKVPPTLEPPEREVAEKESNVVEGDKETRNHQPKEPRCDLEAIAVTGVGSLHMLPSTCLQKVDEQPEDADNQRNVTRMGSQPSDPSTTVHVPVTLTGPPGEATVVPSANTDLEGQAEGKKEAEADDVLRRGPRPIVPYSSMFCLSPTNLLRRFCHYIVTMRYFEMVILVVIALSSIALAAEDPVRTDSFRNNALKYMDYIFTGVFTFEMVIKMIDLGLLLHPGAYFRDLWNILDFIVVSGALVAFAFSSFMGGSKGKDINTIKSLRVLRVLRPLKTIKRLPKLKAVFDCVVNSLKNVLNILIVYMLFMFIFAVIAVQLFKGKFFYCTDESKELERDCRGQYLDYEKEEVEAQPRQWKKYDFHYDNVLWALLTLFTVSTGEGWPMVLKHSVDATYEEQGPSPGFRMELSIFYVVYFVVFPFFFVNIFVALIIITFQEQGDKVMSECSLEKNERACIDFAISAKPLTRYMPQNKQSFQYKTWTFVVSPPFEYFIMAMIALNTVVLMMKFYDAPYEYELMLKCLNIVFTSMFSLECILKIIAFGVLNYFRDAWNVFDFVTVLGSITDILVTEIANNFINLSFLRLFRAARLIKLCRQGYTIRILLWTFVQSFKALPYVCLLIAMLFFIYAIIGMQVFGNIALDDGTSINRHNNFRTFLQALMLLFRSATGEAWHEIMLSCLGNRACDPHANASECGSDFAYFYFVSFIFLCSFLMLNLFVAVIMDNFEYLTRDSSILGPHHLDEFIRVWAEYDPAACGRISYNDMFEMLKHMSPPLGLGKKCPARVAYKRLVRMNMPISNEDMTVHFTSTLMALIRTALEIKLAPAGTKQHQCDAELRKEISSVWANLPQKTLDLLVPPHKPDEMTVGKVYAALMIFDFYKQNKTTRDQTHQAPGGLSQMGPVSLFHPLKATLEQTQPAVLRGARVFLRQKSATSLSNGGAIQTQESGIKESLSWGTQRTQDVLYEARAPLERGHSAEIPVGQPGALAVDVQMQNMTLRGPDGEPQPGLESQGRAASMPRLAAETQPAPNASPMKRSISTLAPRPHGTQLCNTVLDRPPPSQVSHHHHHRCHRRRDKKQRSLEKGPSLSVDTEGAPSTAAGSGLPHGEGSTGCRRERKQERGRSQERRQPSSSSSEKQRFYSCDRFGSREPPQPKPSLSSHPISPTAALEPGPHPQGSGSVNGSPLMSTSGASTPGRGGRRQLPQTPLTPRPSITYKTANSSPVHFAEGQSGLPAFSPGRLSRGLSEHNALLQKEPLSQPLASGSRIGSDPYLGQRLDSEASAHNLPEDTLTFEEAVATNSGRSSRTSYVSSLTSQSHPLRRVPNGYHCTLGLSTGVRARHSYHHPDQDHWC

[5] = system: bovine adrenal chromaffin cells; type: cell-based
[6] = biological target: human noradrenaline transporter (NET) (human) (UniProt P23975); experiment: displacement of [3H]nisoxetine from COS-7 hNET membranes; remark: listed apart in the source
[7] = biological target: N-type voltage-sensitive calcium channel (rat brain membrane) (rat) (UniProt Q02294)

Chain of human noradrenaline transporter (NET) (human) (P23975 whole entry): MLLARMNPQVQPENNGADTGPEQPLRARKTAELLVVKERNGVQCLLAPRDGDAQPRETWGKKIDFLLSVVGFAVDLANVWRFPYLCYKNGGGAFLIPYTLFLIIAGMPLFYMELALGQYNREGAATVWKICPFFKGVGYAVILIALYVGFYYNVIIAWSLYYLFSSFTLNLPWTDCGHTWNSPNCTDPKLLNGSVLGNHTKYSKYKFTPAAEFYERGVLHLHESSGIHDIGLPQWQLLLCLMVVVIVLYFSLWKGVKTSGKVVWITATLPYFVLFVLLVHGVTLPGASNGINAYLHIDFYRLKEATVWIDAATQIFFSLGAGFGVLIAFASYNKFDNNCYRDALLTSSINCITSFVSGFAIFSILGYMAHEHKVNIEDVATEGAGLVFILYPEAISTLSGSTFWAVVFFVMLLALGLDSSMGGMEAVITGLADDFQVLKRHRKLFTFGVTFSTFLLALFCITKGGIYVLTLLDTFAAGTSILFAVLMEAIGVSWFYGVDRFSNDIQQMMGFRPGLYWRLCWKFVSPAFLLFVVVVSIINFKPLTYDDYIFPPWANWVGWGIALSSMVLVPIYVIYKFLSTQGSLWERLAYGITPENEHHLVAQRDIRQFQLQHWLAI
Chain of P/Q type Ca channels (P54282 whole entry, looked up): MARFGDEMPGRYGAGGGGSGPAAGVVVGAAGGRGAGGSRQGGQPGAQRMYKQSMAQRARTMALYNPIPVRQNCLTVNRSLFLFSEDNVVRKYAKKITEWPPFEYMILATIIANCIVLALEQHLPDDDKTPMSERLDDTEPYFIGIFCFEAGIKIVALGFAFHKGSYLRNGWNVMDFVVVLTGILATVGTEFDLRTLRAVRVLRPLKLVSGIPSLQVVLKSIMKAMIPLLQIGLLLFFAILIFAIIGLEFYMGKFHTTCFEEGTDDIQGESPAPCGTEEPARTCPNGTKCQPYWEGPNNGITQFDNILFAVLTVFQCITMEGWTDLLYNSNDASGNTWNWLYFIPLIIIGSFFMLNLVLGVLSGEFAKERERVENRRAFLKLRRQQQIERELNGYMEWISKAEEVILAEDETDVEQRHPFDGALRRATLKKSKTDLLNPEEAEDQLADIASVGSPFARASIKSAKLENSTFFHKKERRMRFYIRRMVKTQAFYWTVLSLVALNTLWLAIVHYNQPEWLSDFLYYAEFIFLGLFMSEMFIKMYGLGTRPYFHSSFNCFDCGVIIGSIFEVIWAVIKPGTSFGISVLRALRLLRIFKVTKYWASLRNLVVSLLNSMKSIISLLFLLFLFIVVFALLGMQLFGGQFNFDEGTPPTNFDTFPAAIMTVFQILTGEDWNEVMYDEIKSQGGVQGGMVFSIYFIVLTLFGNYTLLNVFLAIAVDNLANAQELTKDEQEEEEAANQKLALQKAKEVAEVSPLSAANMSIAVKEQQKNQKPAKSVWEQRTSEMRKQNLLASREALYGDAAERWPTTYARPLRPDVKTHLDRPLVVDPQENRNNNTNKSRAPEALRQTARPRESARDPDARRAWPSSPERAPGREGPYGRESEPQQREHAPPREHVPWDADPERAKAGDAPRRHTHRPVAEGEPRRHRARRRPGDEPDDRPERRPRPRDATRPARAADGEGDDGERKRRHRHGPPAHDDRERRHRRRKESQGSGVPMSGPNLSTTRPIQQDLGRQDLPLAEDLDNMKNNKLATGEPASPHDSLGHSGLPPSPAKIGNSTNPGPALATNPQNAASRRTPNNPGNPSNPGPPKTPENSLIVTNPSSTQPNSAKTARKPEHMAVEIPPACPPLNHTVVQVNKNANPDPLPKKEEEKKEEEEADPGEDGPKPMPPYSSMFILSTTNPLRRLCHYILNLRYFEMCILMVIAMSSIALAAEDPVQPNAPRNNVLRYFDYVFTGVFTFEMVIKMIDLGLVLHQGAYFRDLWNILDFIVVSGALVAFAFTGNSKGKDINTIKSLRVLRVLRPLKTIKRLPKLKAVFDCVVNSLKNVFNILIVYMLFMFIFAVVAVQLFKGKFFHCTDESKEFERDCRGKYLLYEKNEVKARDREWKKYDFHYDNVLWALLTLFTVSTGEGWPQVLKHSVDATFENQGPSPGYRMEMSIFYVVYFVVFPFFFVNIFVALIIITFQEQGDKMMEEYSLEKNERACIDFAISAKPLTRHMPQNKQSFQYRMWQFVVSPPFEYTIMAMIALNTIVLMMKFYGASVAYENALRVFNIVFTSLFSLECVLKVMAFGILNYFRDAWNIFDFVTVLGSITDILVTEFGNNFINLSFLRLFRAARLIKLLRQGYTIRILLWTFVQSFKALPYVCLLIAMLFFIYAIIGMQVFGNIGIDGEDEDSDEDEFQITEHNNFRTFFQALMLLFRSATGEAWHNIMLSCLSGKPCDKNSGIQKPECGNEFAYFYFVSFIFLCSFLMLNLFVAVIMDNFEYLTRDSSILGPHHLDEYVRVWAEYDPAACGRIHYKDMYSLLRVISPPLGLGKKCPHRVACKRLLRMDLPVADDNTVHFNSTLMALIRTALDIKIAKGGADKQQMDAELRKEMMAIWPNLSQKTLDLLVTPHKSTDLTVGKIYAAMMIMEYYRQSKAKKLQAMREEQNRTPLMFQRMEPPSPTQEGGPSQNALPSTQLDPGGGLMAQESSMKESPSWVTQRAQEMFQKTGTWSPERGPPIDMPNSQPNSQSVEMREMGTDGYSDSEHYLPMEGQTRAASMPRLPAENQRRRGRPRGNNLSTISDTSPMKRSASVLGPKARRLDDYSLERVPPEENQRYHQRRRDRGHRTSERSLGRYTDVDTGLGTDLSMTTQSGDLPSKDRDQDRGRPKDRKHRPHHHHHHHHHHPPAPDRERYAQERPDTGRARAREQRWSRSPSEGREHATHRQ

Which results are given for “[Sec5,10]MrIA-NH2 (peptide; other documents disagree on this pair)”?
pEC50 [1]: 5.86; log EC50 [1]: -5.86

What does the source list for “CKGKGAKCSRLMYDCCTGSCRSGKCTRNG [cyclo-MVIIA 2]”?
ability to displace 125I-MVIIC (P/Q type Ca channels): did not show any ability to displace; selectivity N-type over P/Q-type channel (P/Q type Ca channels): selectivity for the N-type channel over the P/Q-type channel

Which half-life [2] does the source give for `CC(C)C[C@@H]1NC(=O)[C@H](CC(N)=O)NC(=O)[C@H](CO)NC(=O)[C@H](Cc2cnc[nH]2)NC(=O)[C@H](CCC(=O)O)NC(=O)[C@H](CC(C)C)NC(=O)[C@H](Cc2cnc[nH]2)NC(=O)[C@@H]2CSSC[C@H](NC(=O)CN)C(=O)N[C@@H](CSSC[C@@H](C(N)=O)NC1=O)C(=O)N[C@@H](CO)C(=O)N[C@@H](CC(N)=O)C(=O)N1CCC[C@H]1C(=O)N[C@@H](C(C)C)C(=O)N2` [MII, α-conotoxin MII] here?
Its half-life is about 10 h.

What about the half-life [3] of the same compound?
Its half-life is about 16 h.

With “GLPVCKGKGAKCSRIMYDCCTGSCRSGKCTRG [SEQ ID NO. 7]” as the compound, how does the pEC50 [4] read?
The pEC50 was 8.97.

With “Gly Cys Cys Ser Asp Pro Arg Cys Asn Tyr Asp His Pro Glu Ile Cys Gly Gly Ala Ala Gly Gly [cVc1.1-6]” as the compound, how does the “inhibition of nicotine-evoked catecholamine release, activity relative to Vc1.1” value [5] read?
The value was “identical, within experimental error, to that of acyclic Vc1.1”.

With “χ-conotoxin MrIA-NH2 (peptide; other documents disagree on this pair)” as the compound, how does the pEC50 [1] read?
Its pEC50 is 5.74.

And the log EC50 [1]?
The log EC50 was -5.74.

And the pEC50 [6]?
The pEC50 was 5.83.

With ω-conotoxin MVIIA (peptide) as the compound, how does the pEC50 [7] read?
Its pEC50 is 10.36.

With “CKGKGAKCSRLMYDCCTGSCRSGKCTRNGLPG [cyclo-MVIIA 1]” as the compound, how does the pEC50 [4] read?
The pEC50 was 7.07.
